Data published in article PMC8639918, “Mechanism of phosphate sensing and signaling revealed by rice SPX1-PHR2 complex structure” (Nature Communications, 2021).
Substitutions are numbered along the chain they refer to.

Assays:
Format in all cases: binding
SPX1^1–259 [1] = target: T1, SPX1^1–259 (Oryza sativa, UniProt Q69XJ0); assay: ITC; conditions: 25 °C; 20 mM HEPES/NaOH pH 7.5, 200 mM NaCl, 2 mM beta-mercaptoethanol
T1 construct: residues 1-259 (C-terminally truncated), N-terminal 10xHis-MsyB tag cut with TEV, E. coli BL21(DE3), monomer
T1 sequence (Q69XJ0 1-259): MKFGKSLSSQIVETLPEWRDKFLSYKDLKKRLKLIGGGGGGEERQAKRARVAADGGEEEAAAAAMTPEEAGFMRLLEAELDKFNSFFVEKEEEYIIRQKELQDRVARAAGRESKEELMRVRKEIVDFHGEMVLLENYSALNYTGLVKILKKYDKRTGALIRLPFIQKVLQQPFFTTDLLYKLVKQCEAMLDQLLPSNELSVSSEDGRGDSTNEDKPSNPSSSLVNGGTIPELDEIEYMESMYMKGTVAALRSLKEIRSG
From the text: ITC on SPX1^1–259 | In contrast to the moderate InsP6 binding ability of the wild-type protein

SPX1^1–259 [2] = target: T2, SPX1^1–259 (Oryza sativa, UniProt Q69XJ0, Y25F/K29A/K151A); assay: ITC; conditions: 25 °C; 20 mM HEPES/NaOH pH 7.5, 200 mM NaCl, 2 mM beta-mercaptoethanol
T2 construct: residues 1-259 (C-terminally truncated), N-terminal 10xHis-MsyB tag cut with TEV, E. coli BL21(DE3), monomer
T2 sequence (Q69XJ0 1-259 Y25F/K29A/K151A): T1 sequence (Q69XJ0 1-259) with Y25F, K29A, K151A

SPX1^1–259 [3] = target: T3, SPX1^1–259 (Oryza sativa, UniProt Q69XJ0, K147A); assay: ITC
T3 construct: residues 1-259 (C-terminally truncated), N-terminal 10xHis-MsyB tag cut with TEV, E. coli BL21(DE3), monomer
T3 sequence (Q69XJ0 1-259 K147A): T1 sequence (Q69XJ0 1-259) with K147A
From the text: ITC on SPX1^1–259 | SPX1 K147A mutation had little effect on InsP6 binding affinity

SPX1^1–259▵N17 = target: T4, SPX1^1–259▵N17 (Oryza sativa, UniProt Q69XJ0); assay: ITC; conditions: 25 °C; 20 mM HEPES/NaOH pH 7.5, 200 mM NaCl, 2 mM beta-mercaptoethanol
T4 construct: SPX1 1-259 without the N-terminal helix alpha1 (deltaN17, residues 1-17 deleted), N-terminal 10xHis-MsyB tag cut with TEV, E. coli BL21(DE3)
T4 sequence (Q69XJ0 18-259): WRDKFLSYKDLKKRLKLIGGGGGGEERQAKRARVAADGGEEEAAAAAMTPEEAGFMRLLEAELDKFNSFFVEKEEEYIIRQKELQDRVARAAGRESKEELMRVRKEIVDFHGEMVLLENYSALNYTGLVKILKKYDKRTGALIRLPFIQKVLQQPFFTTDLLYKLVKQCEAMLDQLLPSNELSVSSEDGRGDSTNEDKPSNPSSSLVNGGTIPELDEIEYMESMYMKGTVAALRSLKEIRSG

InsP6-SPX1-PHR2 complex = target: T5, InsP6-SPX1-PHR2 complex (Oryza sativa, UniProt Q69XJ0); assay: X-ray crystal structure, […] Å; conditions: basic groove between SPX1 helices α1, α2 and α4; allosteric
T5 construct: SPX1 1-198 with T4 lysozyme fused to its C-terminus (crystallisation aid) plus Se-Met PHR2 248-380 (MYB and CC domains), tags cut with TEV, E. coli BL21(DE3), 1:1 heterodimer; with Protein PHOSPHATE STARVATION RESPONSE 2
T5 sequence (Q6Z156 with tags, fused parts or gaps V263M/L278M/L295M/L340M partner, one chain of several): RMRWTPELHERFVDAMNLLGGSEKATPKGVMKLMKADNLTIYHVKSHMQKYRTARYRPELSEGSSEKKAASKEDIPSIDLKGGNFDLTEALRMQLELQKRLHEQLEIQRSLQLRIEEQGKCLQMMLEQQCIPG

SPX1^1–259 [4] = target: T1, SPX1^1–259; assay: thermal shift assay (SYPRO Orange); conditions: 20 mM HEPES/NaOH pH 7.5, 200 mM NaCl; InsP6 0 to 250 μM

Kd (SPX1^1–259 [1]): 5.5 ± 0.93 µM
Kd (SPX1^1–259 [3]): 5.69 ± 1.46 µM
Kd (SPX1^1–259▵N17): 34.1 ± 1.95 µM
Structure (SMILES): O=P(O)(O)O[C@H]1[C@H](OP(=O)(O)O)[C@@H](OP(=O)(O)O)[C@H](OP(=O)(O)O)[C@@H](OP(=O)(O)O)[C@H]1OP(=O)(O)O [InsP6]
Kd (SPX1^1–259 [2]): the SPX1 mutant lost its InsP6-binding activity
X-ray crystal structure, 2.6 Å (InsP6-SPX1-PHR2 complex): each captured by an SPX1 molecule via a highly basic surface groove
Tm (SPX1^1–259 [4]): InsP6 could increase the melting temperature (Tm) of SPX1 greatly
